Source: US20070128217A1 (priority 2003, published 2007)

How the values were obtained:
[1] = system: control sera (pooled serum of ten healthy LUMC hospital workers; commercial negative donor pooled serum from the Dutch bloodbank); type: binding, human; set-up: Binding of Control serum LUMC to linear peptides / Binding of Control serum Blood-bank to linear peptides / Binding of Control serum LUMC to looped peptides / Binding of Control Serum Blood-Bank to Looped peptides / Binding of Control serum LUMC to linear peptides of the protein M of SARS-CoV Urbani / Binding of Control serum Blood-bank to linear peptides of the protein M of SARS-CoV Urbani / Binding of Control serum LUMC to looped peptides of the protein M of SARS-CoV Urbani / Binding of Control Serum Blood-Bank to Looped peptides of the protein M of SARS-CoV Urbani: unit not given here
[2] = system: antibodies in sera from SARS patients (sera 1a, 1b, 2, 6, 37, 62, London, SARS-yellow, SARS-green); type: binding, human; set-up: Binding of serum 6 to linear peptides of protein X1 of SARS-CoV Urbani / Binding of serum 37 to linear peptides of protein X1 of SARS-CoV Urbani / Binding of serum 6 to looped/cyclic peptide (PEPSCAN-ELISA) / Binding of serum 37 to looped/cyclic peptide (PEPSCAN-ELISA) / Binding of serum 37 to looped/cyclic peptides of protein X1 of SARS-CoV Urbani / Binding of serum 6 to linear peptides of protein X2 / Binding of serum 37 to linear peptides of protein X2 / Binding of serum 37 to looped/cyclic peptides of protein X2 of SARS-CoV Urbani / Binding of serum 6 to linear peptides of protein M of SARS-CoV Urbani / Binding of serum 37 to linear peptides of protein M of SARS-CoV Urbani / Binding of serum 6 to looped/cyclic peptides of protein M of SARS-CoV Urbani / Binding of serum 37 to looped/cyclic peptides of protein M of SARS-CoV Urbani / Binding of serum 6 to linear peptides of protein X3 of SARS-CoV Urbani / Binding of serum 37 to linear peptides of protein X3 of SARS-CoV Urbani / Binding of serum 37 to looped/cyclic peptides of protein X3 of SARS-CoV Urbani / Binding of serum 6 to linear peptides of protein X4 of SARS-CoV Urbani / Binding of serum 37 to linear peptides of protein X4 of SARS-CoV Urbani / Binding of serum 37 to looped/cyclic peptides of protein X4 of SARS-CoV Urbani / Binding of serum 6 to linear peptides of protein X5 of SARS-CoV Urbani / Binding of serum 37 to linear peptides of protein X5 of SARS-CoV Urbani / Binding of serum 37 to looped/cyclic peptides of protein X5 of SARS-CoV Urbani / Binding of serum 6 to linear peptides of protein N of SARS-CoV Urbani / Binding of serum 37 to linear peptides of protein N of SARS-CoV Urbani / Binding of serum 6 to linear peptide (PEPSCAN-ELISA) / Binding of serum 1a to looped/cyclic peptides of protein N of SARS-CoV Urbani / Binding of serum 1b to looped/cyclic peptides of protein N of SARS-CoV Urbani / Binding of serum 2 to looped/cyclic peptides of protein N of SARS-CoV Urbani / Binding of serum 6 to looped/cyclic peptides of protein N of SARS-CoV Urbani / Binding of serum 37 to looped/cyclic peptides of protein N of SARS-CoV Urbani / Binding of serum 62 to looped/cyclic peptides of protein N of SARS-CoV Urbani / Binding of serum London to looped/cyclic peptides of protein N of SARS-CoV Urbani / Binding of serum SARS-green to looped/cyclic peptides of protein N of SARS-CoV Urbani: unit not given here
[3] = system: rabbit serum obtained by immunizing a rabbit with the SARS-CoV strain Frankfurt 1; type: binding; set-up: Binding of a rabbit serum to linear peptides / Binding of a rabbit serum to looped peptides / Rabbit serum linear peptides / Rabbit serum looped peptides / Binding of a rabbit serum to linear peptides of protein N of SARS-CoV Urbani (Rabbit serum linear peptides) / Binding of a rabbit serum to looped/cyclic peptides of protein N of SARS-CoV Urbani (Rabbit serum looped peptides): unit not given here

## IIKLVFLWLLWPVTL
[1]
  Binding of Control Serum Blood-Bank to Looped peptides of the protein M of SARS-CoV Urbani: 0.7
  Binding of Control serum Blood-bank to linear peptides of the protein M of SARS-CoV Urbani: 0.5
  Binding of Control serum LUMC to linear peptides of the protein M of SARS-CoV Urbani: 0.6
  Binding of Control serum LUMC to looped peptides of the protein M of SARS-CoV Urbani: 0.6
[2]
  Binding of serum 1a to linear peptides of protein M of SARS-CoV Urbani: 0.7
  Binding of serum 1a to looped/cyclic peptides of protein M of SARS-CoV Urbani: 0.6
  Binding of serum 1b to linear peptides of protein M of SARS-CoV Urbani: 0.5
  Binding of serum 1b to looped/cyclic peptides of protein M of SARS-CoV Urbani: 0.7
  Binding of serum 2 to linear peptides of protein M of SARS-CoV Urbani: 0.4
  Binding of serum 2 to looped/cyclic peptides of protein M of SARS-CoV Urbani: 0.5
  Binding of serum 6 to linear peptides of protein M of SARS-CoV Urbani: 0.4
  Binding of serum 6 to looped/cyclic peptides of protein M of SARS-CoV Urbani: 0.5
  Binding of serum 37 to linear peptides of protein M of SARS-CoV Urbani: 0.3
  Binding of serum 37 to looped/cyclic peptides of protein M of SARS-CoV Urbani: 0.5
  Binding of serum 62 to linear peptides of protein M of SARS-CoV Urbani: 0.3
  Binding of serum 62 to looped/cyclic peptides of protein M of SARS-CoV Urbani: 0.6
  Binding of serum London to linear peptides of protein M of SARS-CoV Urbani: 0.3
  Binding of serum London to looped/cyclic peptides of protein M of SARS-CoV Urbani: 0.2
  Binding of serum SARS-green to linear peptides of protein M of SARS-CoV Urbani: 0.4
  Binding of serum SARS-green to looped/cyclic peptides of protein M of SARS-CoV Urbani: 0.3
  Binding of serum SARS-yellow to linear peptides of protein M of SARS-CoV Urbani: 0.2
  Binding of serum SARS-yellow to looped/cyclic peptides of protein M of SARS-CoV Urbani: 0.4
[3]
  Rabbit serum linear peptides: 0.1
  Rabbit serum looped peptides: 0.0

## QFICNLLLLFVTIYS
[1]
  Binding of Control Serum Blood-Bank to Looped peptides: 0.5
  Binding of Control serum Blood-bank to linear peptides: 0.6
  Binding of Control serum LUMC to linear peptides: 0.6
  Binding of Control serum LUMC to looped peptides: 0.5
[2]
  Binding of serum 1a to linear peptides of protein X1 of SARS-CoV Urbani: 0.6
  Binding of serum 1a to looped/cyclic peptide (PEPSCAN-ELISA): 0.5
  Binding of serum 1b to linear peptides of protein X1 of SARS-CoV Urbani: 0.5
  Binding of serum 1b to looped/cyclic peptide (PEPSCAN-ELISA): 0.4
  Binding of serum 2 to linear peptides of protein X1 of SARS-CoV Urbani: 0.6
  Binding of serum 2 to looped/cyclic peptide (PEPSCAN-ELISA): 0.6
  Binding of serum 6 to linear peptides of protein X1 of SARS-CoV Urbani: 0.4
  Binding of serum 6 to looped/cyclic peptide (PEPSCAN-ELISA): 0.3
  Binding of serum 37 to linear peptides of protein X1 of SARS-CoV Urbani: 0.5
  Binding of serum 37 to looped/cyclic peptide (PEPSCAN-ELISA): 0.5
  Binding of serum 62 to linear peptides of protein X1 of SARS-CoV Urbani: 0.6
  Binding of serum 62 to looped/cyclic peptide (PEPSCAN-ELISA): 0.5
  Binding of serum London to linear peptides of protein X1 of SARS-CoV Urbani: 0.2
  Binding of serum London to looped/cyclic peptide (PEPSCAN-ELISA): 0.2
  Binding of serum SARS-green to linear peptides of protein X1 of SARS-CoV Urbani: 0.0
  Binding of serum SARS-green to looped/cyclic peptide (PEPSCAN-ELISA): 0.2
  Binding of serum SARS-yellow to linear peptides of protein X1 of SARS-CoV Urbani: 0.4
  Binding of serum SARS-yellow to looped/cyclic peptide (PEPSCAN-ELISA): 0.5
[3]
  Binding of a rabbit serum to linear peptides: 0.3
  Binding of a rabbit serum to looped peptides: 0.5

## DFQVTIAEILIIIMR
[1]
  Binding of Control Serum Blood-Bank to Looped peptides of the protein X3 of SARS-CoV Urbani: 0.8
  Binding of Control serum Blood-bank to linear peptides of the protein X3 of SARS-CoV Urbani: 0.8
  Binding of Control serum LUMC to linear peptides of the protein X3 of SARS-CoV Urbani: 0.6
  Binding of Control serum LUMC to looped peptides of the protein X3 of SARS-CoV Urbani: 0.7
[2]
  Binding of serum 1a to linear peptides of protein X3 of SARS-CoV Urbani: 0.7
  Binding of serum 1a to looped/cyclic peptides of protein X3 of SARS-CoV Urbani: 0.7
  Binding of serum 1b to linear peptides of protein X3 of SARS-CoV Urbani: 0.5
  Binding of serum 1b to looped/cyclic peptides of protein X3 of SARS-CoV Urbani: 0.4
  Binding of serum 2 to linear peptides of protein X3 of SARS-CoV Urbani: 0.6
  Binding of serum 2 to looped/cyclic peptides of protein X3 of SARS-CoV Urbani: 0.7
  Binding of serum 6 to linear peptides of protein X3 of SARS-CoV Urbani: 0.5
  Binding of serum 6 to looped/cyclic peptides of protein X3 of SARS-CoV Urbani: 0.4
  Binding of serum 37 to linear peptides of protein X3 of SARS-CoV Urbani: 0.6
  Binding of serum 37 to looped/cyclic peptides of protein X3 of SARS-CoV Urbani: 0.7
  Binding of serum 62 to linear peptides of protein X3 of SARS-CoV Urbani: 0.6
  Binding of serum 62 to looped/cyclic peptides of protein X3 of SARS-CoV Urbani: 0.5
  Binding of serum London to linear peptides of protein X3 of SARS-CoV Urbani: 0.6
  Binding of serum London to looped/cyclic peptides of protein X3 of SARS-CoV Urbani: 0.2
  Binding of serum SARS-green to linear peptides of protein X3 of SARS-CoV Urbani: 0.4
  Binding of serum SARS-green to looped/cyclic peptides of protein X3 of SARS-CoV Urbani: 0.2
  Binding of serum SARS-yellow to linear peptides of protein X3 of SARS-CoV Urbani: 0.5
  Binding of serum SARS-yellow to looped/cyclic peptides of protein X3 of SARS-CoV Urbani: 0.7
[3]
  Rabbit serum linear peptides: 0.3
  Rabbit serum looped peptides: 0.3
